Assay results published in patent US9902722B2, “Biaryl kinase inhibitors” (BRISTOL-MYERS SQUIBB COMPANY, priority 2014, dated 2018).

These compounds were tested against GST-Xa-hAAK1 (Homo sapiens (Human), UniProt Q2M2I8) (assay: AAK1 Kinase Assay). Conditions: bacterially expressed GST-Xa-hAAK1 3.5 nM; ATP 22 μM; peptide substrate 1.5 μM; 3 hours at room temperature; Caliper LabChip 3000.
Format: biochemical
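Note: each compound tested across an eleven-point concentration series, with IC50 obtained through non-linear regression fitting.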
Procedure: The assays were performed in U-bottom 384-well plates. […] The reactions were initiated by the combination of bacterially expressed, GST-Xa-hAAK1 with substrates and test compounds. The reactions were incubated at room temperature for 3 hours and terminated by adding 60 μl of 35 mM EDTA buffer to each sample. […] Compounds were dissolved at 10 mM in dimethylsulfoxide (DMSO) and evaluated at eleven concentrations. IC50 values were derived by non-linear regression analysis.

GST-Xa-hAAK1, sequence (Q2M2I8 whole entry): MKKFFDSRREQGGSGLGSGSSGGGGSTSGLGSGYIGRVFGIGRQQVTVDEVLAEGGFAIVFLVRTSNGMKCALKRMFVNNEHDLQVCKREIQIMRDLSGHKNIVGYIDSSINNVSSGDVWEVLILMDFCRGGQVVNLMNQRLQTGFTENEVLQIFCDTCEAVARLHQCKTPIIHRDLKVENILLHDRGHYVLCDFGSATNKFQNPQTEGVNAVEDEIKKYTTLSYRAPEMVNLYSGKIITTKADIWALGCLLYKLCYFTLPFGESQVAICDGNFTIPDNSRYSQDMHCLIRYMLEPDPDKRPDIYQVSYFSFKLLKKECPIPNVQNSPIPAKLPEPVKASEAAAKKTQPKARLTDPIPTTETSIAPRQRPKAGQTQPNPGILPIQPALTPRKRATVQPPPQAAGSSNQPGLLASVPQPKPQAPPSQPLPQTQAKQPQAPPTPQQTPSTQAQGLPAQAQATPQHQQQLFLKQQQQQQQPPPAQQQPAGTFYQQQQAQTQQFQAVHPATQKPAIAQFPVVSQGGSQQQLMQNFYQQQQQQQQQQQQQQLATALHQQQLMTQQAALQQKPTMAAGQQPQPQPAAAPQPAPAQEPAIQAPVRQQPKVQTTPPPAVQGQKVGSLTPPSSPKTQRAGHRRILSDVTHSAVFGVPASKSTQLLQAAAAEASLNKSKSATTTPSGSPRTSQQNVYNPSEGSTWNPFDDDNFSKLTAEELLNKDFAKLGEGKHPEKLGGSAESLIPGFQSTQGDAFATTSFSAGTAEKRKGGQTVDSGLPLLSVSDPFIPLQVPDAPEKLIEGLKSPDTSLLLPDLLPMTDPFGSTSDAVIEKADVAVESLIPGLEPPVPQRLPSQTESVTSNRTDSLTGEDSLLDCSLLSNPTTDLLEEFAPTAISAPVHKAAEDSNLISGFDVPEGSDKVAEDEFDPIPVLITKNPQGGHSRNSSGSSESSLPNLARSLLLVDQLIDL

IC50 [nM]	SMILES
92	Cc1cc(-c2cc(C(F)F)c(OC[C@@](N)(CF)CC(C)C)cn2)ccn1 [Example 188, (R)-1-((4-(difluoromethyl)-2′-methyl-[2,4′-bipyridin]-5-yl)oxy)-2-(fluoromethyl)-4-methylpentan-2-amine]
1.2	CC(C)C[C@](C)(N)COc1ncc(-c2ccnc3cc(F)ccc23)cc1Cl [Example 190, (S)-1-((3-chloro-5-(7-fluoroquinolin-4-yl)pyridin-2-yl)oxy)-2,4-dimethylpentan-2-amine]
0.99	CC(C)C[C@](C)(N)COc1ncc(-c2ccnc3ccc(F)cc23)cc1Cl [Example 191, (S)-1-((3-chloro-5-(6-fluoroquinolin-4-yl)pyridin-2-yl)oxy)-2,4-dimethylpentan-2-amine]
2.9	CC(C)C[C@](C)(N)COc1ncc(-c2ccnc(Cl)c2)cc1C(F)F [Example 193, (S)-1-((2′-chloro-5-(difluoromethyl)-[3,4′-bipyridin]-6-yl)oxy)-2,4-dimethylpentan-2-amine]
1.5	Cc1cc(-c2cnc(OC[C@@](C)(N)CC(C)C)c(C(F)F)c2)ccn1 [Example 194, (S)-1-((5-(difluoromethyl)-2′-methyl-[3,4′-bipyridin]-6-yl)oxy)-2,4-dimethylpentan-2-amine]
0.2	COC(=O)Nc1cc(-c2cnc(OC[C@@](C)(N)CC(C)C)c(C(F)F)c2)ccn1 [Example 196, (S)-methyl (6-((2-amino-2,4-dimethylpentyl)oxy)-5-(difluoromethyl)-[3,4′-bipyridin]-2′-yl)carbamate]
0.31	CC(C)C[C@](C)(N)COc1ncc(-c2ccnc3cc(Cl)ccc23)cc1C(F)F [Example 197, (S)-1-((5-(7-chloroquinolin-4-yl)-3-(difluoromethyl)pyridin-2-yl)oxy)-2,4-dimethylpentan-2-amine]
1.2	CC(C)C[C@](C)(N)COc1ncc(-c2ccnc3ccc(F)cc23)cc1C(F)F [Example 200, (S)-1-((3-(difluoromethyl)-5-(6-fluoroquinolin-4-yl)pyridin-2-yl)oxy)-2,4-dimethylpentan-2-amine]
0.23	CC(C)C[C@](C)(N)COc1ncc(-c2ccnc3ccccc23)cc1C(F)F [Example 204, (S)-1-((3-(difluoromethyl)-5-(quinolin-4-yl)pyridin-2-yl)oxy)-2,4-dimethylpentan-2-amine]
0.7	Cc1ccc2c(-c3cnc(OC[C@@](C)(N)CC(C)C)c(C(F)F)c3)ccnc2c1 [Example 205, (S)-1-((3-(difluoromethyl)-5-(7-methylquinolin-4-yl)pyridin-2-yl)oxy)-2,4-dimethylpentan-2-amine]
4.3	COC(=O)Nc1cc(-c2cc(OC)c(OC[C@@](C)(N)CC(C)C)cn2)ccn1 [Example 206, (S)-methyl (5-((2-amino-2,4-dimethylpentyl)oxy)-4-methoxy-[2,4′-bipyridin]-2′-yl)carbamate]
19	COc1cc(-c2ccnc(C(F)F)c2)ncc1OC[C@@](C)(N)CC(C)C [Example 207, (S)-1-((2′-(difluoromethyl)-4-methoxy-[2,4′-bipyridin]-5-yl)oxy)-2,4-dimethylpentan-2-amine]
4.6	COC(=O)Nc1cc(-c2ccc(OC[C@@](C)(N)CC(C)C)c3ccccc23)ccn1 [Example 208, (S)-methyl (4-(4-((2-amino-2,4-dimethylpentyl)oxy)naphthalen-1-yl)pyridin-2-yl)carbamate]
21	CC(C)C[C@](C)(N)COc1ccc(-c2ccnc3ccccc23)c2ccccc12 [Example 209, (S)-2,4-dimethyl-1-((4-(quinolin-4-yl)naphthalen-1-yl)oxy)pentan-2-amine]
79	COC(=O)Nc1cc(-c2ncc(OC[C@@](C)(N)CC(C)C)cn2)ccn1 [Example 210, (S)-methyl (4-(5-((2-amino-2,4-dimethylpentyl)oxy)pyrimidin-2-yl)pyridin-2-yl)carbamate]
